{"source": "paper PMC7251018", "about": "“Structures of a P4-ATPase lipid flippase in lipid bilayers” (Protein & Cell, 2020)", "key": {"[1]": {"target": "T1, ctDnf1p-Cdc50p (Thermochaetoides thermophila, UniProt G0S196)", "T1 sequence (G0S196 whole entry)": "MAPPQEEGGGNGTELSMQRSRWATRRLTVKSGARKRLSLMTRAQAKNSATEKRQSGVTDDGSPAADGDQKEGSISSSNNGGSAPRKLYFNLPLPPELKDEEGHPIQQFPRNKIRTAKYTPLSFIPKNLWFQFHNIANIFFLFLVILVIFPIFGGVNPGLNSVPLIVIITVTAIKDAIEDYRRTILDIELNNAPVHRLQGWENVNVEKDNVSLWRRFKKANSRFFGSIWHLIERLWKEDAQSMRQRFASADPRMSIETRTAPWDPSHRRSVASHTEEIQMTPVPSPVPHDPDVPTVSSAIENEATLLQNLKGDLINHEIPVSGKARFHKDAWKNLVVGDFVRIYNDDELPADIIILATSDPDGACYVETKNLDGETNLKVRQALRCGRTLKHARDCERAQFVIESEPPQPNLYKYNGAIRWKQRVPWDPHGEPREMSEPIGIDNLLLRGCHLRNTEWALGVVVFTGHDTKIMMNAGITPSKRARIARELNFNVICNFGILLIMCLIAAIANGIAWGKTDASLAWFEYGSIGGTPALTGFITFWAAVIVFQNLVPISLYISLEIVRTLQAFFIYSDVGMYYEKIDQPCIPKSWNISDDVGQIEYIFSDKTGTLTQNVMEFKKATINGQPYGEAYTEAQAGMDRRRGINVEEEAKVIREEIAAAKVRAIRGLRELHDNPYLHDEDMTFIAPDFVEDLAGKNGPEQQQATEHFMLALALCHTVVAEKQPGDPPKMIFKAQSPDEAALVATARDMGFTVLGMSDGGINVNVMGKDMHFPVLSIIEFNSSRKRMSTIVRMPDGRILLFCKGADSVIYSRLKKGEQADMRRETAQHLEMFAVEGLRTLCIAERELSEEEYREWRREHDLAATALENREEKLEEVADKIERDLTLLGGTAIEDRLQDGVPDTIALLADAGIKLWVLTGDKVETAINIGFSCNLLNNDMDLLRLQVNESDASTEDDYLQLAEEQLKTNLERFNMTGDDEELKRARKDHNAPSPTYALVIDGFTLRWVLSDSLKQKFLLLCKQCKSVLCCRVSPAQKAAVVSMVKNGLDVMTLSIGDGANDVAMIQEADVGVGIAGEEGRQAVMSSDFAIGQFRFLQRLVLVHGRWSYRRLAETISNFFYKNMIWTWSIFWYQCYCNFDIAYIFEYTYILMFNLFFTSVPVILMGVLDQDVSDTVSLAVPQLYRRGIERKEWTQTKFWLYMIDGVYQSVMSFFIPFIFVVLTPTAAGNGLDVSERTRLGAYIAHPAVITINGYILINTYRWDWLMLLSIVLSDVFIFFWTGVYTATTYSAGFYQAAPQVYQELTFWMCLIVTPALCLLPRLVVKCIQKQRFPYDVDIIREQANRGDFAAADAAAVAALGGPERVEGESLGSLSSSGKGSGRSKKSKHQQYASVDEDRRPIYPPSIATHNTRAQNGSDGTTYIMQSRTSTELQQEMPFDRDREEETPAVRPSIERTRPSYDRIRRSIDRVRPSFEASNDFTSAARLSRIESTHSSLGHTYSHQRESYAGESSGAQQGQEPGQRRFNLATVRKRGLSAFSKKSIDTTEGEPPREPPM", "T1 sequence (G0SDN0 whole entry partner)": "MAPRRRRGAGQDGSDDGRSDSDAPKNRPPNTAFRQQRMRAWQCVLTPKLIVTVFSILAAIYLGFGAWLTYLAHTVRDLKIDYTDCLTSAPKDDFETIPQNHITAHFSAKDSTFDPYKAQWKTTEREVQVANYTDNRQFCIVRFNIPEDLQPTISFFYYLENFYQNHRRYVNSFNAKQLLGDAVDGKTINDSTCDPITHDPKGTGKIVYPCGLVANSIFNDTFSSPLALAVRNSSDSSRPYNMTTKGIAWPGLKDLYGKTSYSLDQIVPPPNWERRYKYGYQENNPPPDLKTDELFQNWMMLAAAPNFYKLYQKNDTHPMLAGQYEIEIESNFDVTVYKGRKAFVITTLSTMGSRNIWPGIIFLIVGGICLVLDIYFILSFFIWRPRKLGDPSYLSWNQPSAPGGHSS", "test": "cryo-EM structure in lipid nanodiscs, […] Å", "design": "gene DNF1; purified heterodimer; reconstituted into lipid nanodiscs (MSP) for cryo-EM; printed residues D606 (phosphorylation site), Q549, N550, S555, S559, E561, N1153, S1158; with Cell division control protein 50 (CDC50 family beta-subunit)", "conditions": "E1-ATP state; nucleotide-binding site, extended conformation"}, "[2]": {"target": "T1, ctDnf1p-Cdc50p", "test": "ATPase activity", "format": "biochemical", "design": "gene DNF1; purified heterodimer; reconstituted into lipid nanodiscs (MSP) for cryo-EM; printed residues D606 (phosphorylation site), Q549, N550, S555, S559, E561, N1153, S1158; with Cell division control protein 50 (CDC50 family beta-subunit)", "conditions": "phospholipid-dependent"}, "[3]": {"target": "T1, ctDnf1p-Cdc50p", "design": "gene DNF1", "conditions": "E2P state; phosphorylation site D606; phosphate analogue"}}}
{"smiles": "Nc1ncnc2c1ncn2[C@@H]1O[C@H](COP(=O)(O)OP(=O)(O)CP(=O)(O)O)[C@@H](O)[C@H]1O", "note": "[AMPPCP]", "values": [{"measurement": "cryo-EM structure in lipid nanodiscs, 3.5 Å", "setting": "[1]", "result": "In the E1-ATP structure, AMPPCP adapts an extended conformation"}]}
{"smiles": "Nc1ncnc2c1ncn2[C@@H]1O[C@H](COP(=O)(O)OP(=O)(O)OP(=O)(O)O)[C@@H](O)[C@H]1O", "note": "[ATP]", "values": [{"measurement": "ATPase activity", "setting": "[2]", "result": "The purified ctDnf1p-Cdc50p heterodimer showed phospholipid-dependent ATPase activity"}]}
{"smiles": "[F][Be-]([F])[F]", "note": "[BeF3^−]", "values": [{"measurement": "cryo-EM structure in lipid nanodiscs, 3.4 Å", "setting": "[3]", "result": "In the E2P structure, BeF3^− is bound at the phosphorylation site D606"}]}
